Measured values: ChEMBL document CHEMBL4602623, “Inhibition of hedgehog signaling by stereochemically defined des-triazole itraconazole analogues” (Bioorg Med Chem Lett, 2020)

Experiment: Inhibition of Hedgehog signaling pathway in mouse ASZ001 cells assessed as decrease in Gli1 mRNA expression after 48 hrs by qRT-PCR analysis
Format: cell-based
Conditions: ASZ001, 48 h

| IC50 [nM] | SMILES |
| --- | --- |
| 300 | CC[C@@H](C)n1ncn(-c2ccc(N3CCN(c4ccc(OC[C@@H]5CO[C@H](c6ccc(Cl)cc6Cl)O5)cc4)CC3)cc2)c1=O |
| 110 | CC[C@@H](C)n1ncn(-c2ccc(N3CCN(c4ccc(OC[C@@H]5CO[C@@](Cn6ccnc6)(c6ccc(Cl)cc6Cl)O5)cc4)CC3)cc2)c1=O |
| 25 | CC[C@@H](C)n1ncn(-c2ccc(N3CCN(c4ccc(OC[C@@H]5CO[C@@](CCl)(c6ccc(Cl)cc6Cl)O5)cc4)CC3)cc2)c1=O |
| 69 | CC[C@@H](C)n1ncn(-c2ccc(N3CCN(c4ccc(OC[C@@H]5CO[C@@](c6ccc(Cl)cc6Cl)(C(F)(F)F)O5)cc4)CC3)cc2)c1=O |
| 820 | CC[C@@H](C)n1ncn(-c2ccc(N3CCN(c4ccc(OC[C@@H]5CO[C@@](CN6C(=O)c7ccccc7C6=O)(c6ccc(Cl)cc6Cl)O5)cc4)CC3)cc2)c1=O |
| 20 | CC[C@@H](C)n1ncn(-c2ccc(N3CCN(c4ccc(OC[C@@H]5CO[C@](CCl)(c6ccc(Cl)cc6Cl)O5)cc4)CC3)cc2)c1=O |
| 67 | CC[C@@H](C)n1ncn(-c2ccc(N3CCN(c4ccc(OC[C@@H]5CO[C@](c6ccc(Cl)cc6Cl)(C(F)(F)F)O5)cc4)CC3)cc2)c1=O |
| 1070 | CC[C@@H](C)n1ncn(-c2ccc(N3CCN(c4ccc(OC[C@@H]5CO[C@](CN6C(=O)c7ccccc7C6=O)(c6ccc(Cl)cc6Cl)O5)cc4)CC3)cc2)c1=O |
| 110 | CC[C@@H](C)n1ncn(-c2ccc(N3CCN(c4ccc(OC[C@@H]5CO[C@](Cn6ccnc6)(c6ccc(Cl)cc6Cl)O5)cc4)CC3)cc2)c1=O |
| 310 | CC[C@@H](C)n1ncn(-c2ccc(N3CCN(c4ccc(OC[C@@H]5CO[C@@H](c6ccc(Cl)cc6Cl)O5)cc4)CC3)cc2)c1=O |
| 940 | CC[C@@H](C)n1ncn(-c2ccc(N3CCN(c4ccc(OC[C@@H]5CO[C@@](C(N)=O)(c6ccc(Cl)cc6Cl)O5)cc4)CC3)cc2)c1=O |
| 550 | CC[C@@H](C)n1ncn(-c2ccc(N3CCN(c4ccc(OC[C@@H]5CO[C@@](CN)(c6ccc(Cl)cc6Cl)O5)cc4)CC3)cc2)c1=O |
| 140 | CCC(C)n1ncn(-c2ccc(N3CCN(c4ccc(OCC5COC(Cn6cncn6)(c6ccc(Cl)cc6Cl)O5)cc4)CC3)cc2)c1=O (stereo not drawn) [ITRACONAZOLE] |
